This note sets out measurements from patent US20020032178A1 (priority 2000, published 2002).

What is called melting point is the temperature of the solid-liquid transition. Compound `COC(=O)c1cccc(/C=N/NC(=O)c2ccc(C)cc2)c1O` [I-2] returned a melting point of 134 to 137 °C.
